Assay results taken from patent publication US20230339854A1, “Negative Allosteric Modulation of GluN3-Containing N-Methyl-D-Aspartate Receptors” (Emory University, priority 2020, published 2023).
Values joined by “and” are separate entries in the source; they are usually repeats but may differ in a detail not shown here. Equal entries are not always repeated. Where two headings read alike, the source gives them in different places.

Columns and labels:
[1] = In vivo pharmacokinetics and brain penetration in mice; set-up: species or system mouse
Experimental: EU1180-438 was dosed at 20 mg/kg intraperitoneal in seven freely-fed male C57BL/6 mice. EU1180-438 was formulated in 5% DMA, 10% PEG, 30% HPBCD, qs to volume w/water.
Plasma was sampled at seven points: pre-dose, 0.25, 0.5, 1, 2, 4, and 8 hours (n=3 per time point, 21 plasma samples per treatment group). […] Samples were analyzed via LC-MS/MS to quantify the amount of parent compound present in each sample.
EU1180-438 was tested in male C57BL/6 mice for brain penetrability. After a single intraperitoneal dose of 20 mg/kg the concentration of EU1180-438 in the plasma was measured. […] The concentration of EU1180-438 in the brain was also measured to determine if the compound can pass the blood-brain barrier. The compound was detected in the brain tissue up to 8 hours after dosage administration.

[2] = molecular target: T1, rat GluN1-4a/GluN3B receptors (Rattus norvegicus, UniProt Q8VHN2); assay: Two-electrode voltage-clamp recordings of GluN1-4a/GluN3B receptors in the presence of CGP-78608 (Xenopus oocytes); assay type: cell-based
T1 construct: Human GluN3A (NP_597702.2) and rat GluN3B (NP_579842.2) were synthesized and subcloned into SP6 plasmids; expressed in transfected cells; host or cells: Xenopus laevis oocytes, cRNA injection
T1 sequence (Q8VHN2 25-1002, other chains not shown): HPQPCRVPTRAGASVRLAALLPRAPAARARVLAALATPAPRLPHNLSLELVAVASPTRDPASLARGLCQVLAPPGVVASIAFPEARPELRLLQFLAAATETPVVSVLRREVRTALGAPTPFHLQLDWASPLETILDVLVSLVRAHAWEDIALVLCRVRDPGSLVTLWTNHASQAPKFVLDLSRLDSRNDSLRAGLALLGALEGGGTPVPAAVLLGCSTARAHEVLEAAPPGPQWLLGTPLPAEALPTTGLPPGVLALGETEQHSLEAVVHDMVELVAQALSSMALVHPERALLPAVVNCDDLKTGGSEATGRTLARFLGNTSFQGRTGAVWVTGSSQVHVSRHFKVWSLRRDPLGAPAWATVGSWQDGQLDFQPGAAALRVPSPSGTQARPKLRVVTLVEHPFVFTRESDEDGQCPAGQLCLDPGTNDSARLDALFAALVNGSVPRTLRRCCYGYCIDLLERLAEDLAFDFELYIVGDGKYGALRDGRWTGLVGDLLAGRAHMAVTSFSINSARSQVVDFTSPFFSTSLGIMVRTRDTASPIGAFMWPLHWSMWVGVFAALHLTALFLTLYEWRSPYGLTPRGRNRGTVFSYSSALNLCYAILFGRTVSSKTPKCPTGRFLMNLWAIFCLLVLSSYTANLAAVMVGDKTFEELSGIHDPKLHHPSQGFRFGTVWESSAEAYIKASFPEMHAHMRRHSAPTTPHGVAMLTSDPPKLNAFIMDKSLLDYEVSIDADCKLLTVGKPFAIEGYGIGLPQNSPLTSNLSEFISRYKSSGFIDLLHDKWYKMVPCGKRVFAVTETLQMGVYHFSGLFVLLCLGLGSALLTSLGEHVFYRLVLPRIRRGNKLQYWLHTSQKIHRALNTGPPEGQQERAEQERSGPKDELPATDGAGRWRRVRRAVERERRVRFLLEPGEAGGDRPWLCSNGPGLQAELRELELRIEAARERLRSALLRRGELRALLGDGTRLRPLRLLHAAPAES
Description: cDNA encoding human wild-type (WT) GluN1-1a (GenBank accession numbers NP_015566, hereafter GluN1) and rat GluN1-1a (NP_058706.1) were synthesized and subcloned into pGEMHE plasmid; some experiments used the rat splice variant GluN1-4a (NP_001257531.1). Human GluN3A (NP_597702.2) and rat GluN3B (NP_579842.2) were synthesized and subcloned into SP6 plasmids. For most experiments, human GluN1 was co-expressed with human GluN3A, except for mutagenesis experiments where rat GluN1 was co-expressed with human GluN3A. Rat GluN1-4a was always expressed with rat GluN3B.
Defolliculated Xenopus laevis oocytes (stage V-VI) were obtained from Ecocyte BioScience (Austin, Texas), or prepared from commercially available Xenopus ovaries (Xenopus 1, Dexter, MI) as previously described (Hansen, et al., Mol. Pharmacol., 2013). A Drummond Nanoject II (Broomall, PA) was used to inject oocytes with cRNAs encoding GluN1 and GluN3 at a 1:3 ratio in RNase-free water. The cRNA was diluted as needed to give responses with amplitudes ranging between 200-2000 nA (0.2-10 ng total cRNA). Following cRNA injection, the oocytes were stored at 15-19° C. in Barth's solution that contained (in mM) 88 NaCl, 2.4 NaHCO3, 1 KCl, 0.33 Ca(NO3)2, 0.41 CaCl2), 0.82 MgSO4, and 5 Tris-HCl (pH 7.4 with NaOH), supplemented with 1 μg/ml streptomycin (Invitrogen, Carlsbad, CA) and 100 μg/ml gentamicin (Fisher Scientific, Pittsburgh, PA). Recordings were performed 2-5 days following cRNA microinjection at room temperature (23° C.) using a two-electrode voltage-clamp amplifier (OC725, Warner Instrument, Hamilton, CT). The signal was low-pass filtered at 10-20 Hz (4-pole, −3 dB Bessel) and digitized at the Nyquist rate using PCI-6025E or USB-6212 BNC data acquisition boards (National Instruments, Austin, TX) using EasyOocyte (http://www.easyoocyte.io/). Oocytes were placed in a custom-made chamber and continuously perfused (2.5 ml/min) with oocyte recording solution containing (in mM) 90 NaCl, 1 KCl, 10 HEPES, 0.5-1.0 BaCl2, and 0.01 EDTA (pH 7.4 with NaOH). Solutions were applied by gravity, and solution exchange was controlled through a rotary valve (Hamilton, Reno, NV). Recording electrodes were filled with 0.3-3.0 M KCl, and current responses were recorded at a holding potential of −40 mV.
Response (%)=(100−minimum)/(1+([concentration]/IC50)^nH)+minimum (2) • where nH is the Hill slope, IC50 is the concentration that produces a half-maximal effect, and minimum is the degree of residual inhibition at a saturating concentration of the negative allosteric modulator.
Selected compounds were also screened in the same assay as EU1180-438 to determine their effect on GluN3B.

GABA receptors = GABA receptors in Xenopus oocytes (selectivity); assay type: cell-based, rat; details: 20 μM
Experimental: (§1) The numbers of oocytes recorded are in parentheses.
(§2) The cDNA was linearized by restriction enzymes (Thermo Fisher Scientific, Lithuania), and the cRNA encoding the receptor subunits was synthesized from the linear template cDNA using the mMESSAGE mMACHINE kit (Invitrogen/Thermo Fisher Scientific, Lithuania). The α1β1δγ nAChR subunits were injected at a 1:1:1:1 ratio while α4 […] nAChR subunits were injected at a 1:1 ratio. The cDNAs encoding GABA and glycine subunits were provided by Dr. D. Weiss (University of Texas Health Science Center at San Antonio). The cDNAs encoding nAChR subunits were provided by Drs. R. Papke (University of Florida) and S. Heinemann (Salk Institute). The cDNA encoding the purinergic receptor was provided by Dr. R. Hume (University of Michigan).
(§3) Responses in the presence of EU1180-438 were expressed as a percent of control calculated as the average of the responses before and after EU1180-438 exposure. […]
(§4) Defolliculated Xenopus laevis oocytes (stage V-VI) were obtained from Ecocyte BioScience (Austin, Texas), or prepared from commercially available Xenopus ovaries (Xenopus 1, Dexter, MI) as previously described (Hansen, et al., Mol. Pharmacol., 2013). […] Recording electrodes were filled with 0.3-3.0 M KCl, and current responses were recorded at a holding potential of −40 mV.

GluK2 kainate receptors = molecular target: T2, GluK2 kainate receptors (Rattus norvegicus, UniProt P42260); assay: Kainate receptors in Xenopus oocytes (selectivity); assay type: cell-based; details: 20 μM
T2 construct: expressed in transfected cells; host or cells: Xenopus laevis oocytes, cRNA injection
T2 sequence (P42260 32-908): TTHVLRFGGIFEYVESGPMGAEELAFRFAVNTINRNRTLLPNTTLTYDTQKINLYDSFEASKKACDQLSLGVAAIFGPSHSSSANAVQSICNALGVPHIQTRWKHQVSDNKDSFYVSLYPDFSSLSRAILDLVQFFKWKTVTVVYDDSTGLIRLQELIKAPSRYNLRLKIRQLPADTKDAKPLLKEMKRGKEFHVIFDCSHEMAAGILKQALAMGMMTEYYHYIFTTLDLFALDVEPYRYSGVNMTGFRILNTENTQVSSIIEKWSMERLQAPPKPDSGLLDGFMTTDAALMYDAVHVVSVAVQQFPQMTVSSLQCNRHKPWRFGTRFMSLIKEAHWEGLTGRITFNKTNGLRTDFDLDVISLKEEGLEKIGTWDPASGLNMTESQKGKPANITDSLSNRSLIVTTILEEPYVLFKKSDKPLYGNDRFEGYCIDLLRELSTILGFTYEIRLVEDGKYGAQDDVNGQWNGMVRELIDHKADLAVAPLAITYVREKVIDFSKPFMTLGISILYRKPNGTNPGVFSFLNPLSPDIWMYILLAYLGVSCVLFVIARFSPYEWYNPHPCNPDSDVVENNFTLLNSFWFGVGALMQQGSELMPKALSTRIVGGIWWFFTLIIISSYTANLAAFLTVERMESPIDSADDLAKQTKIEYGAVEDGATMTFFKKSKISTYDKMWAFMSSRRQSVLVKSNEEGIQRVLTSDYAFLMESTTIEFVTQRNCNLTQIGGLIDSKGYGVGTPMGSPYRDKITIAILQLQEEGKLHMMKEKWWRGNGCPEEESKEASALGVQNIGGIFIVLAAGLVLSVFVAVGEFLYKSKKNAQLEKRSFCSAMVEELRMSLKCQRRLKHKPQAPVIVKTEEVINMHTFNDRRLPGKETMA
Experimental: as §1, §2, §3, §4

nicotinic receptors = assay: Nicotinic acetylcholine receptors in Xenopus oocytes (selectivity); assay type: cell-based, rat; details: 20 μM
Experimental: as §1, §2, §3, §4

[3] = mice, 20 mg/kg intraperitoneal, 0.25 hour, 20 mg/kg
[4] = mice, 20 mg/kg intraperitoneal, 1 hour, 20 mg/kg
[5] = mice, 20 mg/kg intraperitoneal, 8 hour, 20 mg/kg
[6] = 500 nM CGP-78608 plus 100 μM glycine

time after dosage up to which compound was detected in brain tissue ([1]; male C57BL/6 mice, 20 mg/kg intraperitoneal): up to 8 hours | max concentration in plasma ([1]; male C57BL/6 mice, single intraperitoneal dose of 20 mg/kg): 2.75 µM | concentration at 0.25 h ([1]; male, C57BL/6, mouse, brain, ip, 20 mg/kg, mice, 20 mg/kg intraperitoneal, 0.25 hour, read-out: Brain Concentration): 3680 nM | Kp at 0.25 h ([1]; male, C57BL/6, mouse, brain, ip, 20 mg/kg, mice, 20 mg/kg intraperitoneal, 0.25 hour, read-out: Brain to Plasma Ratio): 1.6 | Kp at 0.25 h ([1]; male, C57BL/6, mouse, brain, ip, 20 mg/kg, mice, 20 mg/kg intraperitoneal, 0.25 hour, read-out: Mean Ratio (brain to plasma)): 1.74 | concentration at 1 h ([1]; male, C57BL/6, mouse, brain, ip, 20 mg/kg, mice, 20 mg/kg intraperitoneal, 1 hour, read-out: Brain Concentration): 1960 nM | Kp at 1 h ([1]; male, C57BL/6, mouse, brain, ip, 20 mg/kg, mice, 20 mg/kg intraperitoneal, 1 hour, read-out: Brain to Plasma Ratio): 1.57 | Kp at 1 h ([1]; male, C57BL/6, mouse, brain, ip, 20 mg/kg, mice, 20 mg/kg intraperitoneal, 1 hour, read-out: Mean Ratio (brain to plasma)): 1.79 | concentration at 2 h ([1]; male, C57BL/6, mouse, brain, ip, 20 mg/kg, mice, 20 mg/kg intraperitoneal, 2 hour, read-out: Brain Concentration): 1050 nM | Kp at 2 h ([1]; male, C57BL/6, mouse, brain, ip, 20 mg/kg, mice, 20 mg/kg intraperitoneal, 2 hour, read-out: Mean Ratio (brain to plasma)): 0.88 | concentration at 8 h ([1]; male, C57BL/6, mouse, brain, ip, 20 mg/kg, mice, 20 mg/kg intraperitoneal, 8 hour, read-out: Brain Concentration): 60 nM | Kp at 8 h ([1]; male, C57BL/6, mouse, brain, ip, 20 mg/kg, mice, 20 mg/kg intraperitoneal, 8 hour, read-out: Brain to Plasma Ratio): 1.37 | Kp at 8 h ([1]; male, C57BL/6, mouse, brain, ip, 20 mg/kg, mice, 20 mg/kg intraperitoneal, 8 hour, read-out: Mean Ratio (brain to plasma)): 1.02 | concentration at 0.25 h ([1]; male, C57BL/6, mouse, plasma, ip, 20 mg/kg, mice, 20 mg/kg intraperitoneal, 0.25 hour, read-out: Plasma Concentration): 2300 nM | concentration at 1 h ([1]; male, C57BL/6, mouse, plasma, ip, 20 mg/kg, mice, 20 mg/kg intraperitoneal, 1 hour, read-out: Plasma Concentration): 1250 nM | concentration at 2 h ([1]; male, C57BL/6, mouse, plasma, ip, 20 mg/kg, mice, 20 mg/kg intraperitoneal, 2 hour, read-out: Plasma Concentration): 890 nM | concentration at 8 h ([1]; male, C57BL/6, mouse, plasma, ip, 20 mg/kg, mice, 20 mg/kg intraperitoneal, 8 hour, read-out: Plasma Concentration): 50 nM | Brain to Plasma Ratio [1, 3]: 1.98 and 1.64 | Plasma Concentration [1, 3]: 2050 nM and 2210 nM | concentration at 0.25 h ([1]; mice, 20 mg/kg intraperitoneal, 0.25 hour, 20 mg/kg, read-out: Brain Concentration): 4060 nM and 3630 nM | Brain to Plasma Ratio [1, 4]: 1.96 and 1.83 | Plasma Concentration [1, 4]: 1040 nM and 1170 nM | concentration at 0.25 h ([1]; mice, 20 mg/kg intraperitoneal, 1 hour, 20 mg/kg, read-out: Brain Concentration): 2040 nM and 2140 nM | Plasma Concentration ([1]; mice, 20 mg/kg intraperitoneal, 2 hour, 20 mg/kg): 920 nM and 960 nM | concentration at 0.25 h ([1]; mice, 20 mg/kg intraperitoneal, 2 hour, 20 mg/kg, read-out: Brain Concentration): 660 nM and 690 nM | Brain to Plasma Ratio [1, 5]: 0.90 and 0.72 | Plasma Concentration [1, 5]: 40 nM | concentration at 0.25 h ([1]; mice, 20 mg/kg intraperitoneal, 8 hour, 20 mg/kg, read-out: Brain Concentration): 40 nM and 30 nM | half-life ([1]; mouse, ip, plasma, male C57BL/6 mice, 20 mg/kg intraperitoneal): 1.57 h | maximal inhibition ([2]; 500 nM CGP-78608): 93% | Slope [2, 6]: 1.5 | minimum [2, 6]: 7% | % Inhibition GluN1/GluN3B + CGP ([2]; fitted maximum at saturating test compound, pH 7.4, 0.5 μM CGP-78608): 93%, (n = 8) | activity at GABA receptors (GABA receptors): virtually no activity | activity at GluK2 kainate receptors (GluK2 kainate receptors): virtually no activity
SMILES: COc1ccc(OCC(c2ccc(OC)cc2)N2Cc3ccccc3C2=O)cc1 (racemic) [EU1180-438, 2-(2-(4-methoxyphenoxy)-1-(4-methoxyphenyl)ethyl)isoindolin-1-one]
activity at nicotinic receptors (nicotinic receptors): inhibited some, but not all, nicotinic receptors
